Consider four compounds from patent publication US20160066572A1, “METHOD OF SANITIZING EDIBLE SEEDS, PARTICULARLY MUCILAGE PRODUCING SEEDS” (AGRI-NEO INC., priority 2013, published 2016).

The subject of assay [1] is Total count Aerobic bacteria. Put plainly: Total aerobic count on seeds, grains and spices sprayed with sanitizing solutions (Example 1). Type of assay: cell-based. The procedure: (§1) Seeds were mechanically cleaned and spread in stainless steel containers. Each 100 grams seeds were sprayed with 4 ml total solutions descried above via conventional trigger vaporizer. This solution is equivalent to 40 L disinfecting solution total sprayed on 1-tonne seeds. Seeds, grains and spices were selected to represent all families and types of seeds, grains and spices. Another criterium was to select seeds and grains contaminated with a high count of total aerobic bacteria, yeast, mold, E. coli, Salmonella sp. and other pathogenic microorganisms.
(§2) Seeds, grains and spices treated were: • Whole dried pea, • Split pea dried, • Pea fiber, • Vanilla, • Chia, • Sprouted flax and chia, • Flax, • Hemp, and • Black pepper seeds

The subject of assay [2] is yeast and mold (Y&M). The experiment in a line: Y&M count on seeds, grains and spices sprayed with sanitizing solutions (Example 1). Type of assay: cell-based. Conditions: 40 L/tonne; for Y&M, Av: average; for Y&M, n1: replicate n1; for Y&M, n2: replicate n2. The procedure:
as §1, §2

In assay [3] the test system is chia and flax seeds. The experiment in a line: Mucilage release from mucilaginous seeds after treatment. The following applies: alcohol in the aqueous sanitizing composition.
Description: A minimum of 4 ml of the treatment solution was sprayed, using a handheld atomizing sprayer while mixing, on 100 gram samples of chia and flax seeds. The samples were allowed to air dry and checked for mucilage.
A minimum of 4 ml of the treatment solution was sprayed, using a handheld atomizing sprayer while mixing, on 100-gram samples of chia and flax seeds. The samples were allowed to air dry and checked for mucilage.
Setting [4] is: whole dried pea, 40 L per 1 tonne.

Turning to `CCO` [2- Alcohol - ethanol, ethanol], the “bactericidal effect (conclusion)” value is listed as “not a strong bactericidal agent” in assay [1] (black pepper, 40 L per 1 tonne); “not a strong bactericidal agent” in assay [1] (hemp, 40 L per 1 tonne); “not a strong bactericidal agent” in assay [1] (pea fiber, 40 L per 1 tonne); “not a strong bactericidal agent” in assay [1] (split pea, 40 L per 1 tonne); “bactericidal agent but not very strong” in assay [1] (sprouted flax and chia); “not a strong bactericidal agent” in assay [1] (vanilla, 40 L per 1 tonne). For the same compound, in assay [1] (setting [4]), the “bactericidal effect (conclusion)” value was “not a strong bactericidal agent”. Further, the “Total count Aerobic CFU/g bacteria, Av” value in assay [1] (black pepper, 40 L/tonne, average) is “Av = 1 million”; in assay [1] (chia seeds, 40 L/tonne, average) it was “Av = 510,000 CFU/g”; in assay [1] (flax seeds, 40 L/tonne, average), “Av = 2 millions”; in assay [1] (hemp, 40 L/tonne, average), “Av = 1 million”; in assay [1] (pea fiber, 40 L/tonne, average) it was “Av = 700,000 CFU/g”; in assay [1] (sprouted flax and chia, 40 L/tonne, average), “Av = 600,000 CFU/g”. Further, the “Total count Aerobic CFU/g bacteria, Av” value in assay [1] (vanilla, 40 L/tonne, average) is recorded as “Av = 1 million”; in assay [1] (whole split pea, 40 L/tonne, average) it was “Av = 700,000 CFU/g”. The “Total count Aerobic CFU/g bacteria, n1” value in assay [1] (chia seeds, 40 L/tonne, replicate n1) is listed as “n1 = 520,000 CFU/g”; in assay [1] (flax seeds, 40 L/tonne, replicate n1), “n1 = 1.8 millions”; in assay [1] (hemp, 40 L/tonne, replicate n1), “n1 = 800,000 CFU/g”; in assay [1] (pea fiber, 40 L/tonne, replicate n1), “n1 = 500,000 CFU/g”; in assay [1] (sprouted flax and chia, 40 L/tonne, replicate n1), “n1 = 550,000 CFU/g”; in assay [1] (vanilla, 40 L/tonne, replicate n1), “n1 = 1 million”. Further, the “Total count Aerobic CFU/g bacteria, n1” value in assay [1] (whole split pea, 40 L/tonne, replicate n1) is reported as “n1 = 700,000 CFU/g”. Besides, the “Total count Aerobic CFU/g bacteria, n2” value in assay [1] (chia seeds, 40 L/tonne, replicate n2) is recorded as “n2 = 500,000 CFU/g”; in assay [1] (flax seeds, 40 L/tonne, replicate n2), “n2 = 2.2 millions”; in assay [1] (hemp, 40 L/tonne, replicate n2) it was “n2 = 1.2 millions”; in assay [1] (pea fiber, 40 L/tonne, replicate n2), “n2 = 900,000 CFU/g”; in assay [1] (sprouted flax and chia, 40 L/tonne, replicate n2), “n2 = 650,000 CFU/g”; in assay [1] (vanilla, 40 L/tonne, replicate n2), “n2 = 1 million”. In addition, the “Total count Aerobic CFU/g bacteria, n2” value in assay [1] (whole split pea, 40 L/tonne, replicate n2) is “n2 = 700,000 CFU/g”. Further, in assay [1] (whole dried pea, 40 L/tonne, average), the “Total count Aerobic - CFU/g bacteria, Av” value is recorded as “Av = 900,000 CFU/g”. Moreover, in assay [1] (whole dried pea, 40 L/tonne, replicate n1), the “Total count Aerobic - CFU/g bacteria, n1” value is “n1 = 800,000 CFU/g”. Further, the “Total count Aerobic - CFU/g bacteria, n2” value in assay [1] (whole dried pea, 40 L/tonne, replicate n2) was “n2 = 1 million”. Besides, the “Y&M, Av” value was “Av = 1,000 Y&M CFU/g” in assay [2] (black pepper); “Av = 10,000 Y&M CFU/g” in assay [2] (chia seeds); “Av = 1,000 Y&M CFU/g” in assay [2] (flax seeds); “Av = 1,000 Y&M CFU/g” in assay [2] (hemp); “Y&M not detected” in assay [2] (pea fiber); “Av = 1,000 Y&M CFU/g” in assay [2] (sprouted flax and chia). In addition, the entries for the “Y&M, Av” value in assay [2] (vanilla), in assay [2] (whole dried pea) and in assay [2] (whole split pea) were “Av = 1,000 Y&M CFU/g”, “Y&M not detected” and “Y&M not detected”, respectively. Also, the “Y&M, n1” value is given as “n1 = 10,000/n2 = 10,000 CFU/g” in assay [2] (chia seeds); “n1 = 1,000/n2 = 1,000 CFU/g” in assay [2] (flax seeds); “n1 = 1000/n2 = 1000 CFU/g” in assay [2] (hemp); “n1, n2 not detected” in assay [2] (pea fiber); “n1 = 1,000/n2 = 1,000 CFU/g” in assay [2] (sprouted flax and chia); “n1 = 1000/n2 = 1000 CFU/g” in assay [2] (vanilla). Moreover, the “Y&M, n1” value in assay [2] (whole dried pea) is recorded as “n1, n2 not detected”; in assay [2] (whole split pea) it was “n1, n2 not detected”. In addition, the “Y&M, n2” value in assay [2] (chia seeds) was “n1 = 10,000/n2 = 10,000 CFU/g”; in assay [2] (flax seeds) it was “n1 = 1,000/n2 = 1,000 CFU/g”; in assay [2] (hemp), “n1 = 1000/n2 = 1000 CFU/g”; in assay [2] (pea fiber), “n1, n2 not detected”; in assay [2] (sprouted flax and chia), “n1 = 1,000/n2 = 1,000 CFU/g”; in assay [2] (vanilla), “n1 = 1000/n2 = 1000 CFU/g”. Further, the “Y&M, n2” value in assay [2] (whole dried pea) is on record as “n1, n2 not detected”; in assay [2] (whole split pea) it was “n1, n2 not detected”.
In the case of `CC(=O)OO` [Peracetic acid], the “bactericidal effect (conclusion)” value in assay [1] (black pepper, 40 L per 1 tonne) is “strong bactericidal agent”; in assay [1] (hemp, 40 L per 1 tonne), “strong bactericidal agent”; in assay [1] (pea fiber, 40 L per 1 tonne), “strong bactericidal agent”; in assay [1] (split pea, 40 L per 1 tonne) it was “strong bactericidal agent”; in assay [1] (vanilla, 40 L per 1 tonne), “strong bactericidal agent”; in assay [1] (setting [4]), “strong bactericidal agent”.
As to `CCO` [ethanol], the “effective amount (concentration) required to suppress mucilage release” value in assay [3] was “about 15 % by volume”.
The same measure, in the same setting: then `CC(O)CO` (centres unmarked) [propylene glycol], with “about 13 % by volume”.
